# Measured values taken from patent US9388146B2, “Crystalline forms of tyrosine kinase inhibitors and their salts” (Purdue Pharma L.P., priority 2013, dated 2016).
# Like-named read-outs stand apart in the source and are kept apart here.
# How the values were obtained:
# [1] = Rat pharmacokinetics (plasma, LC-MS/MS, non-compartmental analysis); format: in vivo; details: for bioavailability: oral
# Description: (§1) Compound I was dosed to nonfasted male CD IGS rats (weighting 180-250 g, Charles River Laboratories) by single intravenous (IV, n=3/group) or oral gavage (PO, n=4/group, including control rat group for drug-free blood and brain collection) administration at a nominal dose levels of 3 mg/kg (IV) or 5 mg/kg (IV) and 10, 50, 100 mg/kg (PO) respectively. Compound was formulated in either DMSO/Solutol® HS 15/phosphate buffered saline, pH 7.4 (PBS) for both IV and PO dosing, or 10% (w/v) Povidone K12 in water for IV dosing or 10% (w/v) Povidone K25 in water for PO dosing, or 18% (w/v) CrosPovidone in water for PO dosing. An intravenous profile was obtained by taking serial or terminal blood samples at 3, 10, 30, 60, 120, 240, 360, 1440 min post dose. An oral profile was obtained by taking serial or terminal blood samples at 10, 30, 60, 120, 240, 360, 480, 1440 min post dose.
# (§2) Animals were sedated under general inhalant anesthesia (3% isoflurane) for blood collection by cardiac puncture. Blood aliquots (300-400 μL) were collected in tubes coated with lithium heparin, mixed gently, then kept on ice and centrifuged at 2,500×g for 15 minutes at 4° C., within 1 hour of collection. For control animals, blood was collected by cardiac puncture. The plasma was then harvested and kept frozen at −20° C. until further processing. Plasma Sample Collection from Cannulated Rats. Blood collection was carried out from the jugular vein catheter. Blood aliquots (300-400 μL) were collected in tubes coated with lithium heparin, mixed gently, then kept on ice and centrifuged at 2,500×g for 15 minutes at 4° C., within 1 hour of collection. For control animals, blood was collected by cardiac puncture. The plasma was then harvested and kept frozen at −20° C. until further processing.
# (§3) Plasma and brain samples were subjected to quantitative analysis by LC-MS/MS using compound-specific mass transitions. Drug concentration-time profiles were generated and non-compartmental PK analysis (using WinNonlin) used to generate estimates of half-life (T1/2), clearance, volume of distribution (Vss), and oral bioavailability (F %) (Gabriesson, J. and Weiner, D. Pharmacokinetic and Pharmacodynamic Data Analysis: Concepts and Applications. Swedish Pharmaceutical Press. 1997). The concentrations of the test compound in brain (ng/g brain tissue) and in plasma (ng/mL) as well as the ratio of the brain concentration and the plasma concentration at each time point were determined and reported.
# [2] = molecular target: TrkC (Homo sapiens, UniProt Q16288); assay: PathHunter whole cell functional assay, NT3 stimulated TrkC activation; format: cell-based; details: triplicate
# [3] = molecular target: TrkB (Homo sapiens, UniProt Q16620); assay: PathHunter whole cell functional assay, BDNF stimulated TrkB activation; format: cell-based; details: triplicate
# [4] = test system: CCI rats; assay: Chronic constriction injury (CCI) model of neuropathic pain in rat; format: in vivo; details: for observed side effects (drowsiness, motor incoordination, abnormality): oral dosing
# Source text: The CCI model is one of the most commonly used mono-neuropathic pain model firstly described in details by Bennett and Xie (Bennett G J, Xie Y K. Pain. 1988; 33(1):87-107). It mimics important clinical chronic pain symptoms such as mechanical allodynia and thermal hyperalgesia. Chronic constriction injury of the sciatic nerve was produced by tying four loose ligatures around the left sciatic nerve according to the method of Bennett and Xie. […] Calibrated von Frey filaments were used to determine the lowest mechanical (tactile) threshold required to evoke a brisk paw withdrawal reflex in the rat hindpaws. Rats were allowed to acclimatize in wire mesh cages for 15-20 min prior to von Frey testing. Assessment of paw withdrawal thresholds (PWTs) using von Frey filaments was undertaken prior to CCI-surgery (pre-surgery baseline on day 0). Before the drug dosing on day 14, the pre-dose baseline was recorded for each rat. […] Drug-naïve CCI-rats (n=4-6 per group) were used. The oral (PO) gavage vehicle was either 10% (w/v) Povidone K25 in water for PO dosing, or 18% (w/v) CrosPovidone in water for PO dosing, or 0.5% CMC-Na/0.1% Tween 80 in distilled water for PO dosing. The positive control gabapentin was dissolved in the vehicle and orally given at 100 mg/kg (by oral gavage). Test article was dissolved or suspended in the vehicle and orally given at 25, 50, 100 and 150 mg/kg. Each CCI-rat was administered a single oral dose of test article, gabapentin or vehicle control, 2 hours before assessment of PWT.
# [5] = test system: SNL rats; assay: Spinal nerve ligation (SNL) mono-neuropathic pain model in rat; format: in vivo; details: oral administration
# Description: The surgical procedure will be performed according to the method firstly described by Kim and Chung (Kim S H, Chung J M. Pain. 1992; 50(3):355-63.). This procedure will result in tactile allodynia in the left hindpaw. […] The dose-response anti-allodynia effects of test compound: on day 14 after surgery, rats were treated with test article at one of four doses, vehicle or positive control by oral gavage, and PWT was determined by calibrated von Frey filaments at time points of 0 (right before the drug dosing, Pre-Dose Baseline), 0.5, 1, 2, 4 and 6 hr. The anti-allodynia effects of repeated administration of test article: Administration of test article was started on day 7 after surgery, once a day for 7 days. PWT was determined by calibrated von Frey filaments, 2 hour after test article dosing each day. After 7 days dosing, the measurement were continued, every other day without compound dosing for another 7 days. PWT was determined at the time points as given above.
# [6] = test system: CFA-induced rat inflammatory pain; assay: Rat CFA-induced inflammatory pain model; format: in vivo; details: 50 μL of 1 mM s.c. into paw 3 hours after CFA, FIG. 1
# Description: Hyperalgesia was induced by subcutaneously injecting 50 μL of CFA (Sigma-Aldrich, St. Louis, Mo., USA) into the plantar surface of the left hind paw of the rats using a 30-gauge hypodermic needle under sevoflurane anesthesia. The classical signs of inflammation, including edema and redness, for up the last day of tests were recorded. To assess the effect of test article on CFA-induced inflammatory pain, the rats were anesthetized with sevoflurane 3 hours after CFA injection and then injected 50 μL of either 1 mM test article (n=6) or Saline (n=4) subcutaneously (S.C.) into the same site as the CFA injection, using a 30-gauge hypodermic needle under sevoflurane anesthesia, according to published method (Ueda K., et al, J Pharmacol. Sci., 2010; 112(4):438-43). Paw withdrawal latencies (thermal hyperalgesia) are measured before and at […] 2, 4, and 7 days after CFA injection. Mechanical thresholds were also measured in the same way with either Formula 1 compound (n=6) or Saline (n=4) at similar different time points (for example, 1, 3 hour and 3 days). The noxious heat and mechanical thresholds were separately measured in each group of rats. The threshold was measured 3-5 times in each rat and then averaged. Stimulus interval was 5 min.
# [7] = Accelerated stability tests by XRPD and Raman; format: physicochemical; details: 1 week
# Description: Approximately 2 mg of sample was gently compressed on the XRPD zero back ground single obliquely cut silica sample holder. The sample was then loaded into a D/MAX 2200 X-ray powder diffractometer (Rigaku) or a Philips X-Pert MPD diffractometer and analyzed using the following experimental conditions (Tube anode: Cu; Generator tension: 40 kV; Tube current: 40 mA; Wavelength alpha1: 1.54056 Å; Wavelength alpha2: 1.5444 Å; Start angle [2 theta]: 5; End angle [2 theta]: 50; and Continuous scan). For suspected novel forms a slightly slower scan speed was used over a range of 4-40° 2θ.
# Samples were analyzed by a Nicolet Almega XR Dispersive Raman Microscope for its Raman spectrum using the following conditions (Exposure Time: 1.0 s; Acquisition No: 10; Pinhole Size: 25, 50 or 100 μm; Wavelength range: 2000˜300 cm^−1 (single grating); Laser: […] 100% power; Objective: 20×/0.40 or 50×/0.75 (magnifier/numerical aperture number)). Then the measured Raman spectra were corrected by baseline subtraction using the software OMNIC™ v7.3.
# [8] = Rat brain and plasma concentration after IV dosing; format: in vivo; details: male, CD IGS, dose 3 and 5 mg/kg
# Description: as §1, §2
# Immediately after the blood sampling, rats were decapitated and the whole brains were quickly removed, rinsed with cold saline (0.9% NaCl, g/mL), surface vasculature ruptured, blotted with dry gauze, weighed and kept on ice until further processing within 1 hour of collection. Each brain was homogenized in 3 mL cold phosphate-buffered saline, pH 7.4 for 10 seconds on ice using Power Gen 125. The brain homogenate from each brain was then stored at −20° C. until further processing.
# as §3
# [9] = male, CD IGS, plasma, IV, 3 mg/kg, mean
# [10] = male, CD IGS, plasma, PO, 100 mg/kg, mean
# TrkC, sequence (Q16288 32-839, species assumed): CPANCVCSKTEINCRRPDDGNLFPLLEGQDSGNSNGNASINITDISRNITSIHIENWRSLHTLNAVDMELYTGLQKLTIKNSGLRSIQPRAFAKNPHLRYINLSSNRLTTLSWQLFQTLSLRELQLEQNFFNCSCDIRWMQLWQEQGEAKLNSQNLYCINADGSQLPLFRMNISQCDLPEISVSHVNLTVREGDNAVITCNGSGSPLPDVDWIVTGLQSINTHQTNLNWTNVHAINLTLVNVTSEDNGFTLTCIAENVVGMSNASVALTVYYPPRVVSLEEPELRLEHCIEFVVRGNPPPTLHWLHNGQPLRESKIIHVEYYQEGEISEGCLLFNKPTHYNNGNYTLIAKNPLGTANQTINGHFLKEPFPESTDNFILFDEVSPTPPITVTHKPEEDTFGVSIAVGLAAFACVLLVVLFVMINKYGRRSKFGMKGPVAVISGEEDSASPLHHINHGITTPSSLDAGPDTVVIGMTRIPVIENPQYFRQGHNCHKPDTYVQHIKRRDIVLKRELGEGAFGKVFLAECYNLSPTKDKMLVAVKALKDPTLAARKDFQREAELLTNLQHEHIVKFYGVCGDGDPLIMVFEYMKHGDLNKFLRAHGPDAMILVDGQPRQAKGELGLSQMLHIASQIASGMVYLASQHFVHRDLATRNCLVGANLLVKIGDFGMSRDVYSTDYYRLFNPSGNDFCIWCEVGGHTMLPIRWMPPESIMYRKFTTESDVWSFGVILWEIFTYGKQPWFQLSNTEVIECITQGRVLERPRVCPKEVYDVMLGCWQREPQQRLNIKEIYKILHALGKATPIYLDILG
# TrkB, sequence (Q16620 32-822, species assumed): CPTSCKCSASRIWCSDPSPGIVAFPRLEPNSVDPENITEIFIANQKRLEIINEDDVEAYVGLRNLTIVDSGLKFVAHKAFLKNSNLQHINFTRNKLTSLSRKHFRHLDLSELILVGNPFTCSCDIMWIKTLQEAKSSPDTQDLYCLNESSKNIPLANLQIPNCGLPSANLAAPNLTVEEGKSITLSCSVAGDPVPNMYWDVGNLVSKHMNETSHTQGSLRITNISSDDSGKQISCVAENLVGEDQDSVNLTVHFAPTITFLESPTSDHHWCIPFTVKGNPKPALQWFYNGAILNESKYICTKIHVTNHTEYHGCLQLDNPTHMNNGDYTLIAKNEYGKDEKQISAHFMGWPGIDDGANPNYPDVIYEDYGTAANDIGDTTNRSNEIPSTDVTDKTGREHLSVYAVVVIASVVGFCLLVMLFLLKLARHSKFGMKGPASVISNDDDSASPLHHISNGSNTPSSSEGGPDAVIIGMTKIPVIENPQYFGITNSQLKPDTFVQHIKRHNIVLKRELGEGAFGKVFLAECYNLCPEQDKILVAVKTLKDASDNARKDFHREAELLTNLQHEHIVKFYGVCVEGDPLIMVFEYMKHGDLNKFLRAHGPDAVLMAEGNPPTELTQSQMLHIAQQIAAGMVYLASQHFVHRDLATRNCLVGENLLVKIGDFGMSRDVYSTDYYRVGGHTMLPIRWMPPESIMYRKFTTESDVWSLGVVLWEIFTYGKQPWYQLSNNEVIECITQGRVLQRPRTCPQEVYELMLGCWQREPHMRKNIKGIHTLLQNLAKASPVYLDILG
smiles,measurement,setting,value
"O=C(O)c1ccc(Nc2cc(N3CCN(C4CCCCC4)CC3)c3noc4c3c2C(=O)c2ccccc2-4)cc1 [Compound 701, 4-((3-(4-cyclohexylpiperazin-1-yl)-6-oxo-6H-anthra[1,9-cd]isoxazol-5-yl)amino)benzoic acid]",bioavailability,"[1]; male, CD IGS, plasma",< 20%
O=C(O)c1ccc(Nc2cc(N3CCN(C4CCCCC4)CC3)c3noc4c3c2C(=O)c2ccccc2-4)cc1 [Compound C],IC50,[2],> 10 µM
same,IC50,[3],> 10 µM
"O=C([O-])c1ccc(Nc2cc(N3CCN(C4CCCCC4)CC3)c3noc4c3c2C(=O)c2ccccc2-4)cc1.[Na+] [Compound I, Sodium 4-((3-(4-cyclohexylpiperazin-1-yl)-6-oxo-6H-anthra[1,9-cd]isoxazol-5-yl)amino)benzoate]","observed side effects (drowsiness, motor incoordination, abnormality)",[4],no such effect or other abnormality was observed
same,more effective in suppressing mechanical allodynia compared to gabapentin,[4]; same oral dose of 100 mg/kg,about 100%
same,"effect on mechanical allodynia (PWT, von Frey)","[4]; single oral dose 25, 50, 100 and 150 mg/kg, 2 hours before assessment, FIG. 2",significantly reduced mechanical allodynia
same,F,"[1]; PO, 100 mg/kg, mean",~100%
same,clearance,[1]; [9],4 mL/min/kg
same,half-life,[1]; [9],1.08 h
same,Vd,"[1]; male, CD IGS, plasma, IV, 3 mg/kg, mean, read-out: Vss",0.287 L/kg
same,Cmax,[1]; [10],66000 ng/mL
same,half-life,[1]; [10],2.07 h
same,bioavailability,"[1]; male, CD IGS, plasma",90 to 100%
same,"effect on mechanical allodynia (PWT, von Frey)",[5],significantly reduced mechanical allodynia
same,analgesic effect (thermal hyperalgesia / mechanical threshold),[6],efficacious in relieving the pain
same,stability as measured by XRPD and Raman,[7]; 40° C./75% RH,no instability
same,stability as measured by XRPD and Raman,[7]; 80° C.,no instability
same,concentration at 30 min,"[8]; brain, 30 min, read-out: Brain concentration",153 ng/g
same,concentration at 60 min,"[8]; brain, 60 min, read-out: Brain concentration",120 ng/g
same,concentration at 180 min,"[8]; brain, 180 min, read-out: Brain concentration",23 ng/g
same,Kp at 30 min,"[8]; brain/plasma, 30 min, read-out: Ratio Brain/Plasma",0.014
same,Kp at 60 min,"[8]; brain/plasma, 60 min, read-out: Ratio Brain/Plasma",0.018
same,Kp at 180 min,"[8]; brain/plasma, 180 min, read-out: Ratio Brain/Plasma",0.019
same,concentration at 30 min,"[8]; plasma, 30 min, read-out: Plasma Concentration",11300 ng/mL
same,concentration at 60 min,"[8]; plasma, 60 min, read-out: Plasma Concentration",8160 ng/mL
same,concentration at 180 min,"[8]; plasma, 180 min, read-out: Plasma Concentration",1830 ng/mL
"O=C([O-])c1ccc(Nc2cc(N3CCN(C4CCCCC4)CC3)c3noc4c3c2C(=O)c2ccccc2-4)cc1.[Na+] [Form A, Sodium 4-((3-(4-cyclohexylpiperazin-1-yl)-6-oxo-6H-anthra[1,9-cd]isoxazol-5-yl)amino)benzoate]",stability of the polymorphic form,[7]; 40° C./75% RH and 80° C.,stable polymorphic form
"NCC1(CC(=O)O)CCCCC1 [gabapentin, reference compound]","observed side effects (drowsiness, motor incoordination, abnormality)",[4],drowsiness or motor incoordination
